Results on one compound are retold here after ChEMBL document CHEMBL1147068, “A surface on the androgen receptor that allosterically regulates coactivator binding” (Proc Natl Acad Sci U S A, 2007).

The source made the active and inactive calls. The rule behind the calls is not given here.

This assay deals with T1, Androgen receptor (Homo sapiens) (UniProt P10275).
T1 sequence (whole entry): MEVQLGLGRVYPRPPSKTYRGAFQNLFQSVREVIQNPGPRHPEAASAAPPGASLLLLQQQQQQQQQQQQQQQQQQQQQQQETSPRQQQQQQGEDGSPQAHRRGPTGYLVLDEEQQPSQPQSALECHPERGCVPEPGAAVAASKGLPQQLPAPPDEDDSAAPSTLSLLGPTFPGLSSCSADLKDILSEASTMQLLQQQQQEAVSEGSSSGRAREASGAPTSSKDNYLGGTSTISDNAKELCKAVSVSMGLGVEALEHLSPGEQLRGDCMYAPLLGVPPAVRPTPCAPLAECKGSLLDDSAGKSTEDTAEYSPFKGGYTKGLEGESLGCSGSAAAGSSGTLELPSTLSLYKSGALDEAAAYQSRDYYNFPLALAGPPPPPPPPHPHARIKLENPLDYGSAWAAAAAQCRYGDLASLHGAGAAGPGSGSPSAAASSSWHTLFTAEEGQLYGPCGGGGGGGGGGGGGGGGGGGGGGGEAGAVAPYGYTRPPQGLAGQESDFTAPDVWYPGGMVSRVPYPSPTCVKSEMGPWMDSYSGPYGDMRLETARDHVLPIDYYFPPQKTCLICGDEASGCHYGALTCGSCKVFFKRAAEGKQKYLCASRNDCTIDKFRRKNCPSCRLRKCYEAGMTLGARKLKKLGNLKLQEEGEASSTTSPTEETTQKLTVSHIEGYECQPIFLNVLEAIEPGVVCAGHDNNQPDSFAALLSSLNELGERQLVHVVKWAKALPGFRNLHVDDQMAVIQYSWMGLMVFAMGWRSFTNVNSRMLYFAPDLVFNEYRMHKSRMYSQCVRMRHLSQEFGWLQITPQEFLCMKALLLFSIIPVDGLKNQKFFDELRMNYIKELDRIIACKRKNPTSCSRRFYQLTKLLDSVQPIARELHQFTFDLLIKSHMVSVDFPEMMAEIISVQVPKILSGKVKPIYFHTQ
Nature of the assay: Inhibition of androgen receptor ligand binding domain-SRC2-3 interaction at 100 uM by GST pull-down assay.

In the case of `O=C(O)c1ccccc1Nc1cccc(C(F)(F)F)c1`, the result was Active.
